Source: patent US10800783B2, “CDK2/4/6 inhibitors” (Pfizer Inc., priority 2016, dated 2020)
Where two headings read alike, the source gives them in different places.

Legend:
CDK6/Cyclin D1 [1] = target: T1, CDK6/Cyclin D1 (Homo sapiens (Human), UniProt Q00534); details: read-out: CDK6_Ki; non-phosphorylated CDK6/Cyclin D1, 2 mM ATP
CDK6/Cyclin D1 [2] = target: T1, CDK6/Cyclin D1; assay: biochemical
[3] = test system: HCC1806 mouse tumor xenograft; assay: HCC1806 tumor model (mouse xenograft); type: in vivo; details: NU/NU female mice; 30, 50 and 75 mpk PO BID, 14 days
Method: • Source: HCC1806 (# CRL 2335, ATCC, Manassas, Va.)
The HCC1806 tumor cell line was cultured in RPMI1640 media supplemented with 10% Fetal Bovine Serum (FBS). To establish a HCC1806 xenograft model, 5×10^6 cells per mouse were implanted subcutaneously into right hind flank NU/NU female mice. Cells were suspended in 50% Cultrex Basement Membrane Extract and 50% RPMI 1640 media serum free media prior to implantation.
Animals were randomized 7 days after cells implantation with each group consisting of 13 mice. Treatment began when tumors reached 100 mm^3 to 170 mm^3 in size on Day 7. Test compounds were prepared in 0.1% Tween, 0.5% Methyl cellulose in water and dosed PO at 30, 50, and 75 mg/kg as a suspension BID for 14 days. Mice receiving no drugs were given vehicle BID for 14 days. Tumor volumes were measured twice a week with an electric caliper, with tumor volumes calculated using Length×Width×Width/2 formula. Animal weights were recorded twice weekly.

[4] = test system: OVCAR3 mouse tumor xenograft; assay: Ovcar3 tumor model (mouse xenograft); type: in vivo; details: NSG mice; 10 mpk PO QD, 50 mpk PO QD and 50 mpk PO BID, 14 days
Method: Ovcar3 tumor cell line, purchased from ATCC (ATCC HTB-161™) was cultured in RPMI1640 (1×) media (Gibco™ cat #11875-093) with 10% FBS (Gibco™ cat #26140-079). To establish a Ovcar3 xenograft model, 5×10^6 cells per mouse was implanted subcutaneously into right hind flank NSG mice (#5557-NOD.cg-PrkdcJackson Lab). Cells were suspended in 50% matrigel (Cultrex Basement Membrane Extract (BME), Trevigen's Basement Membrane Matrix) and 50% RPMI1640 (1×) media (Gibco™ cat #11875-093) serum free media prior to implantation.
Animals were randomized 39 days after cells implantation with each group consisted of 4 mice. Treatment began when tumors reached 100 mm^3-190 mm^3 in size. Test compounds were prepared in 40% Captisol and dosed PO at 10 and 50 mg/kg QD or at 50 mg/kg BID as a suspension for 14 days. Animals were taken down at designated time. Mice receiving no drugs were given vehicle QD or BID for 14 days. Tumor volumes were measured once prior to randomization with an electric caliper, with tumor volumes were calculated using Length×Width×Width/2 formulation. Tumor volumes were measured twice a week with an electric caliper, with tumor volumes calculated using Length×Width×Width/2 formula. Animal weights were recorded twice weekly.

CDK2/Cyclin E1 = CDK2/Cyclin E1 (Homo sapiens (Human), UniProt P24941); assay: biochemical
Method: The assay was initiated with the addition of ATP, following a fifteen minutes pre-incubation of enzyme and inhibitor at room temperature in the reaction mixture. The reaction was stopped after 45 minutes at room temperature by the addition of 50 μL of 80 mM EDTA, pH 7.5.

T1 sequence (Q00534 whole entry): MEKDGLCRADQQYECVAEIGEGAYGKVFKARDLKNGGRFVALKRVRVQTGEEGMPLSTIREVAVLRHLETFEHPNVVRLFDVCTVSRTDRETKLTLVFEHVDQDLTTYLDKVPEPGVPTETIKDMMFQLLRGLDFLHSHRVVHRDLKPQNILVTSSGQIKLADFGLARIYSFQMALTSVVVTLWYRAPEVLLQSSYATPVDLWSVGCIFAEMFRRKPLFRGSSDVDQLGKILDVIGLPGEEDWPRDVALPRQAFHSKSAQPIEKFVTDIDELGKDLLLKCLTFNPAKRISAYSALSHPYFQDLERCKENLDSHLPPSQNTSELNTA
T1 sequence (P24385 whole entry partner): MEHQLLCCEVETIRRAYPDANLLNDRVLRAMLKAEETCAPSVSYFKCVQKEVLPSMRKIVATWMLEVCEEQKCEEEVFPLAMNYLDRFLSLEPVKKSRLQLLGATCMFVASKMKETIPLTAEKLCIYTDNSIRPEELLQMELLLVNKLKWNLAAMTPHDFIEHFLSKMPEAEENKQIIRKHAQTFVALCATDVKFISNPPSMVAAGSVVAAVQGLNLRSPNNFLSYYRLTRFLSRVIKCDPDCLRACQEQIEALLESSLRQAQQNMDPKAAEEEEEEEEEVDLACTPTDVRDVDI

Row | Structure (SMILES) | Ki (CDK6/Cyclin D1 [2]) [nM] | further results
1 | C[C@@]1(O)CCC[C@H]1n1c(=O)ccc2cnc(NC3CCN(S(=O)(=O)C4CCS(=O)(=O)C4)CC3)nc21 (single isomer, unassigned) [Example 71] | – | Ki (CDK6/Cyclin D1 [1]): 1.55 nM
2 | C[C@@]1(O)CCC[C@H]1n1c(=O)ccc2cnc(NC3CCN(S(=O)(=O)NC[C@@H]4CCCO4)CC3)nc21 (stereo in doubt) [Example 62] | 5.69 | –
3 | C[C@]1(O)CCC[C@@H]1n1c(=O)ccc2cnc(NC3CCN(S(=O)(=O)NC[C@@H]4CCCO4)CC3)nc21 (stereo in doubt) [Example 63] | 16.5 | –
4 | C[C@@]1(O)CCC[C@H]1n1c(=O)ccc2cnc(NC3CCN(S(=O)(=O)NC[C@H]4CCCO4)CC3)nc21 (stereo in doubt) [Example 64] | 4.69 | –
5 | C[C@]1(O)CCC[C@@H]1n1c(=O)ccc2cnc(NC3CCN(S(=O)(=O)NC[C@H]4CCCO4)CC3)nc21 (stereo in doubt) [Example 65] | 25.6 | –
6 | Cc1cc2cnc(NC3CCN(S(=O)(=O)NC[C@@H]4CCCO4)CC3)nc2n([C@@H]2CCC[C@@]2(C)O)c1=O (stereo in doubt) [Example 100] | 1.07 | –
7 | Cc1cc2cnc(NC3CCN(S(=O)(=O)NC[C@@H]4CCCO4)CC3)nc2n([C@H]2CCC[C@]2(C)O)c1=O (stereo in doubt) [Example 101] | 23.5 | –
8 | Cc1cc2cnc(NC3CCN(S(=O)(=O)NC[C@H]4CCCO4)CC3)nc2n([C@@H]2CCC[C@@]2(C)O)c1=O (stereo in doubt) [Example 102] | 0.8 | –
9 | Cc1cc2cnc(NC3CCN(S(=O)(=O)NC[C@H]4CCCO4)CC3)nc2n([C@H]2CCC[C@]2(C)O)c1=O (stereo in doubt) [Example 103] | 19.6 | –
10 | C[C@@]1(O)CCC[C@H]1n1c(=O)ccc2cnc(NC3CCN(S(C)(=O)=O)CC3)nc21 [Example 2, 8-[(1R,2R)-2-hydroxy-2-methylcyclopentyl]-2-{[1-(methylsulfonyl)piperidin-4-yl]amino}pyrido[2,3-d]pyrimidin-7(8H)-one] | – | inhibition of tumor growth (mm^3) [3]: dose dependent inhibition of tumor growth; inhibition of tumor growth (mm^3) [4]: dose dependent inhibition of tumor growth
11 | CNS(=O)(=O)N1CCC(Nc2ncc3ccc(=O)n([C@@H]4CCC[C@H]4O)c3n2)CC1 [Example 55] | – | Ki (CDK2/Cyclin E1): 4.66 nM
